Test results: US8541380B2, “C-aryl glucoside SGLT2 inhibitors and pharmaceutical compositions comprising same” (Green Cross Corporation, priority 2009, dated 2013)

biological target: human SGLT2 (Homo sapiens (Human), UniProt P31639); assay: hSGLT2 inhibitory activity, sodium-dependent 14C-AMG glucose transport assay in CHO cells expressing hSGLT2; type: cell-based; conditions: 14C-AMG uptake, CHO cells expressing hSGLT2, 37° C. for 2 h
Description: Human SGLT2 (hSGLT2) gene was amplified by PCR from cDNA-Human Adult Normal Tissue Kidney (Invitrogen, Carlsbad, Calif.). The hSGLT2 sequence was cloned into pcDNA3.1(+) for mammalian expression and were stably transfected into Chinese hamster ovary (CHO) cells. SGLT2-expressing clones were selected based on resistance to G418 antibiotic (Geneticin®, Invitrogen, Carlsbad, Calif.) and activity in the ^14C-α-methyl-D-glucopyranoside (^14C-AMG) uptake assay.
For sodium-dependent glucose transport assay, cells expressing hSGLT2 were seeded into a 96-well culture plate at a density of 5×10^4 cells/well in RPMI medium 1640 containing 10% fetal bovine serum. The cells were used 1 day after plating. They were incubated in pretreatment buffer (10 mM HEPES, 5 mM Tris, 140 mM choline chloride, 2 mM KCl, 1 mM CaCl2, and 1 mM MgCl2, pH 7.4) at 37° C. for 10 min. They were then incubated in uptake buffer (10 mM HEPES, 5 mM Tris, 140 mM NaCl, 2 mM KCl, 1 mM CaCl2, 1 mM MgCl2, and 1 mM ^14C-nonlabeled AMG pH 7.4) containing ^14C-labeled (8 uM) and inhibitor or dimethyl sulfoxide (DMSO) vehicle at 37° C. for 2 h. Cells were washed twice with washing buffer (pretreatment buffer containing 10 mM AMG at room temperature) and then the radioactivity was measured using a liquid scintillation counter.

Chain of human SGLT2 (P31639 whole entry): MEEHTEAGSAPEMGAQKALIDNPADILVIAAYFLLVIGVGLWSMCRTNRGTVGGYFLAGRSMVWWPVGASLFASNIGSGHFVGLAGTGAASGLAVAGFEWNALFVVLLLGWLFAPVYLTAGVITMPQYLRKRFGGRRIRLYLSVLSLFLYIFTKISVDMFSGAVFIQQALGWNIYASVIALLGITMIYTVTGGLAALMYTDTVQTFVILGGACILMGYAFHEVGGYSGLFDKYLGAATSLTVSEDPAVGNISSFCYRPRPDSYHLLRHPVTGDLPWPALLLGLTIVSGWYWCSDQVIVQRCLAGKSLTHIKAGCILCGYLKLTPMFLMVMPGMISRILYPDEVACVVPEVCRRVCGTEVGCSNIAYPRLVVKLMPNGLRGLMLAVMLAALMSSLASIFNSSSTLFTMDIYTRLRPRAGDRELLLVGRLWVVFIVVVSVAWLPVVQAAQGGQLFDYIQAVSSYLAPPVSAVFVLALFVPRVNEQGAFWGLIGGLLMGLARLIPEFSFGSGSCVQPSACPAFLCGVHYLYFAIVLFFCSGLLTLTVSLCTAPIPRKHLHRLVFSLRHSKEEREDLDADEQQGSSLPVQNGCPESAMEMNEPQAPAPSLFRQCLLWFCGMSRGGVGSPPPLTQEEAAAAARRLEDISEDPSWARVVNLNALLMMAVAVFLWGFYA

| Structure (SMILES) | IC50 [nM] |
| --- | --- |
| OC[C@H]1O[C@@H](c2ccc(Cl)c(Cc3nnc(-c4ccco4)s3)c2)[C@H](O)[C@@H](O)[C@@H]1O [Example 1, (2S,3R,4R,5S,6R)-2-(4-Chloro-3-((5-(furan-2-yl)-1,3,4-thiadiazol-2-yl)methyl)phenyl)-6-(hydroxymethyl)-tetrahydro-2H-pyran-3,4,5-triol] | 7.03 |
| Cc1ccc(-c2nnc(Cc3cc([C@@H]4O[C@H](CO)[C@@H](O)[C@H](O)[C@H]4O)ccc3Cl)s2)o1 [Example 2, (2S,3R,4R,5S,6R)-2-(4-Chloro-3-((5-(5-methylfuran-2-yl)-1,3,4-thiadiazol-2-yl)methyl)phenyl)-6-(hydroxymethyl)-tetrahydro-2H-pyran-3,4,5-triol] | 58.3 |
| Cc1ccoc1-c1nnc(Cc2cc([C@@H]3O[C@H](CO)[C@@H](O)[C@H](O)[C@H]3O)ccc2Cl)s1 [Example 3, (2S,3R,4R,5S,6R)-2-(4-Chloro-3-((5-(3-methylfuran-2-yl)-1,3,4-thiadiazol-2-yl)methyl)phenyl)-6-(hydroxymethyl)-tetrahydro-2H-pyran-3,4,5-triol] | 106 |
| OC[C@H]1O[C@@H](c2ccc(Cl)c(Cc3nnc(-c4ccoc4)s3)c2)[C@H](O)[C@@H](O)[C@@H]1O [Example 4, (2S,3R,4R,5S,6R)-2-(4-Chloro-3-((5-(furan-3-yl)-1,3,4-thiadiazol-2-yl)methyl)phenyl)-6-(hydroxymethyl)tetrahydro-2H-pyran-3,4,5-triol] | 17.7 |
| OC[C@H]1O[C@@H](c2ccc(Cl)c(Cc3nnc(-c4cccs4)s3)c2)[C@H](O)[C@@H](O)[C@@H]1O [Example 5, (2S,3R,4R,5S,6R)-2-(4-Chloro-3-((5-(thiophen-2-yl)-1,3,4-thiadiazol-2-yl)methyl)phenyl)-6-(hydroxymethyl)tetrahydro-2H-pyran-3,4,5-triol] | 14.4 |
| OC[C@H]1O[C@@H](c2ccc(Cl)c(Cc3nnc(-c4cc5ccccc5s4)s3)c2)[C@H](O)[C@@H](O)[C@@H]1O [Example 6, (2S,3R,4R,5S,6R)-2-(3-((5-(Benzo[b]thiophen-2-yl)-1,3,4-thiadiazol-2-yl)methyl)-4-chlorophenyl)-6-(hydroxymethyl)-tetrahydro-2H-pyran-3,4,5-triol] | 44.5 |
| Cc1ccsc1-c1nnc(Cc2cc([C@@H]3O[C@H](CO)[C@@H](O)[C@H](O)[C@H]3O)ccc2Cl)s1 [Example 7, (2S,3R,4R,5S,6R)-2-(4-chloro-3-((5-(3-methylthiophen-2-yl)-1,3,4-thiadiazol-2-yl)methyl)phenyl)-6-(hydroxymethyl)-tetrahydro-2H-pyran-3,4,5-triol] | 762 |
| OC[C@H]1O[C@@H](c2ccc(Cl)c(Cc3nnc(-c4ccc(Cl)s4)s3)c2)[C@H](O)[C@@H](O)[C@@H]1O [Example 8, (2S,3R,4R,5S,6R)-2-(4-Chloro-3-((5-(5-chlorothiophen-2-yl)-1,3,4-thiadiazol-2-yl)methyl)phenyl)-6-(hydroxymethyl)-tetrahydro-2H-pyran-3,4,5-triol] | 18.2 |
| OC[C@H]1O[C@@H](c2ccc(Cl)c(Cc3nnc(-c4sccc4Cl)s3)c2)[C@H](O)[C@@H](O)[C@@H]1O [Example 9, (2S,3R,4R,5S,6R)-2-(4-Chloro-3-((5-(3-chlorothiophen-2-yl)-1,3,4-thiadiazol-2-yl)methyl)phenyl)-6-(hydroxymethyl)tetrahydro-2H-pyran-3,4,5-triol] | 712 |
| OC[C@H]1O[C@@H](c2ccc(Cl)c(Cc3nnc(-c4ccsc4)s3)c2)[C@H](O)[C@@H](O)[C@@H]1O [Example 10, (2S,3R,4R,5S,6R)-2-(4-Chloro-3-((5-(thiophen-3-yl)-1,3,4-thiadiazol-2-yl)methyl)phenyl)-6-(hydroxymethyl)tetrahydro-2H-pyran-3,4,5-triol] | 3.51 |
| Cn1cccc1-c1nnc(Cc2cc([C@@H]3O[C@H](CO)[C@@H](O)[C@H](O)[C@H]3O)ccc2Cl)s1 [Example 11, (2S,3R,4R,5S,6R)-2-(4-Chloro-3-((5-(1-methyl-1H-pyrrol-2-yl)-1,3,4-thiadiazol-2-yl)methyl)phenyl)-6-(hydroxymethyl)-tetrahydro-2H-pyran-3,4,5-triol] | 119 |
| Cc1cc(-c2nnc(Cc3cc([C@@H]4O[C@H](CO)[C@@H](O)[C@H](O)[C@H]4O)ccc3Cl)s2)no1 [Example 12, (2S,3R,4R,5S,6R)-2-(4-Chloro-3-((5-(5-methylisoxazol-3-yl)-1,3,4-thiadiazol-2-yl)methyl)phenyl)-6-(hydroxymethyl)tetrahydro-2H-pyran-3,4,5-triol] | 257 |
| OC[C@H]1O[C@@H](c2ccc(Cl)c(Cc3nnc(-c4cscn4)s3)c2)[C@H](O)[C@@H](O)[C@@H]1O [Example 13, (2S,3R,4R,5S,6R)-2-(4-Chloro-3-((5-(thiazol-4-yl)-1,3,4-thiadiazol-2-yl)methyl)phenyl)-6-(hydroxymethyl)tetrahydro-2H-pyran-3,4,5-triol] | 21.8 |
| OC[C@H]1O[C@@H](c2ccc(Cl)c(Cc3nnc(-c4cnc(-c5ccncc5)s4)s3)c2)[C@H](O)[C@@H](O)[C@@H]1O [Example 14, (2S,3R,4R,5S,6R)-2-(4-Chloro-3-((5-(2-(pyridin-4-yl)thiazol-5-yl)-1,3,4-thiadiazol-2-yl)methyl)phenyl)-6-(hydroxymethyl)-tetrahydro-2H-pyran-3,4,5-triol] | 72.6 |
| OC[C@H]1O[C@@H](c2ccc(Cl)c(Cc3nnc(-c4ccccn4)s3)c2)[C@H](O)[C@@H](O)[C@@H]1O [Example 15, (2S,3R,4R,5S,6R)-2-(4-Chloro-3-((5-(pyridin-2-yl)-1,3,4-thiadiazol-2-yl)methyl)phenyl)-6-(hydroxymethyl)tetrahydro-2H-pyran-3,4,5-triol] | 30.3 |
| Cc1ccc(-c2nnc(Cc3cc([C@@H]4O[C@H](CO)[C@@H](O)[C@H](O)[C@H]4O)ccc3Cl)s2)cn1 [Example 16, (2S,3R,4R,5S,6R)-2-(4-Chloro-3-((5-(6-methylpyridin-3-yl)-1,3,4-thiadiazol-2-yl)methyl)phenyl)-6-(hydroxymethyl)-tetrahydro-2H-pyran-3,4,5-triol] | 97.4 |
| OC[C@H]1O[C@@H](c2ccc(Cl)c(Cc3nnc(-c4ccc5ccccc5n4)s3)c2)[C@H](O)[C@@H](O)[C@@H]1O [Example 17, (2S,3R,4R,5S,6R)-2-(4-Chloro-3-((5-(quinolin-2-yl)-1,3,4-thiadiazol-2-yl)methyl)phenyl)-6-(hydroxymethyl)-tetrahydro-2H-pyran-3,4,5-triol] | 562 |
| OC[C@H]1O[C@@H](c2ccc(Cl)c(Cc3nnc(-c4cc5ccccc5cn4)s3)c2)[C@H](O)[C@@H](O)[C@@H]1O [Example 18, (2S,3R,4R,5S,6R)-2-(4-Chloro-3-((5-(isoquinolin-3-yl)-1,3,4-thiadiazol-2-yl)methyl)phenyl)-6-(hydroxymethyl)-tetrahydro-2H-pyran-3,4,5-triol] | 81.6 |
| OC[C@H]1O[C@@H](c2ccc(Cl)c(Cc3nnc(C4CCCC4)s3)c2)[C@H](O)[C@@H](O)[C@@H]1O [Example 19, (2S,3R,4R,5S,6R)-2-(4-Chloro-3-((5-cyclopentyl-1,3,4-thiadiazol-2-yl)methyl)phenyl)-6-(hydroxymethyl)tetrahydro-2H-pyran-3,4,5-triol] | 445 |
| OC[C@H]1OC(c2ccc(Cl)c(Cc3nnc(-c4ccncc4)s3)c2)[C@H](O)[C@@H](O)[C@@H]1O (stereo partly drawn) [Example 20, (3R,4R,5S,6R)-2-(4-Chloro-3-((5-(pyridin-4-yl)-1,3,4-thiadiazol-2-yl)methyl)phenyl)-6-(hydroxymethyl)-tetrahydro-2H-pyran-3,4,5-triol] | 53 |
